“And” between values parts separate entries of the source, which are not always exact repeats. Identical values can stand only once. Like-named read-outs stand apart in the source and are kept apart here. Numbered stars: 1 amine (or outer) side, 2 acyl side, 3 side chain; on linkers, the order of the positions; unused ones are H or OH. Bridge positions count the residues as written; N and C are the ends. Square brackets hold non-standard residues; d marks the D form. Peptide text beside a SMILES is read from it. * marks the point of attachment. hTyr(3S-OH,4S-OH,3'-OSO3H) = N[C@H](C(=O)O)[C@H](O)[C@@H](O)c1ccc(O)c(OS(=O)(=O)O)c1; Orn(4R-OH,5R-OH) = O=C([C@H](C[C@@H](O)[C@@H](O)N[*:3])N[*:1])[*:2]; Pro(3S-OH,4S-Me) = C[C@H]1CN[C@H](C(=O)O)[C@H]1O; X1 = CCCCCOc1ccc(-c2cc(-c3ccc(C(=O)*)cc3)no2)cc1; Gln(3R-OH) = NC(=O)C[C@@H](O)[C@H](N)C(=O)O; Hyp = O=C(O)[C@@H]1C[C@@H](O)CN1
Biological target: SARS-CoV-2 3CLpro enzyme (Severe acute respiratory syndrome coronavirus 2, UniProt P0DTD1)
Experiment: biochemical
Settings: for percent enzymatic activity, individual values / percent enzymatic activity, AVG: DMSO treated control = 100%, data of Figs. 2-4; for percent enzymatic activity, AVG: mean of 3 values; for inhibitory effect towards 3CLpro enzymatic activity (in words): in vitro enzymatic assay at the tested doses; for IC50: drugs 0 to 100 µM, 50 µM substrate, non-linear four variable fit; for inhibition at 50 µM / inhibition at 100 µM: read-out: inhibition of 3CLpro enzymatic activity
[1] = dose-dependent study, 0.097656 uM, individual values
[2] = dose-dependent study, 0.097656 uM, individual values, read-out: % activity
[3] = dose-dependent study, 0.195313 uM, individual values
[4] = dose-dependent study, 0.390625 uM, individual values
[5] = dose-dependent study, 0.390625 uM, individual values, read-out: % activity
[6] = dose-dependent study, 0.78125 uM, individual values
[7] = dose-dependent study, 0.78125 uM, individual values, read-out: % activity
[8] = dose-dependent study, 1.5625 uM, individual values
[9] = dose-dependent study, 1.5625 uM, individual values, read-out: % activity
[10] = dose-dependent study, 3.125 uM, individual values
[11] = dose-dependent study, 6.25 uM, individual values
[12] = dose-dependent study, 6.25 uM, individual values, read-out: % activity
[13] = dose-dependent study, 12.5 uM, individual values
[14] = dose-dependent study, 12.5 uM, individual values, read-out: % activity
[15] = dose-dependent study, 25 uM, individual values
[16] = dose-dependent study, 50 uM, individual values
[17] = dose-dependent study, 100 uM, individual values
[18] = read-out: IC50 for SARS-CoV-2 3CL protease

## CC(C)(C)[C@@H]1NC(=O)O[C@@H]2CCC[C@H]2OC/C=C/C(F)(F)c2nc3ccccc3nc2O[C@@H]2C[C@@H](C(=O)N[C@]3(C(=O)NS(=O)(=O)C4(C)CC4)C[C@H]3C(F)F)N(C2)C1=O [Glecaprevir]
50 µM drug
  percent enzymatic activity, individual values: 92.7616% and 89.3077% and 94.7353%
  percent enzymatic activity, AVG: 92.2682%

## CCN(CCO)CCCC(C)Nc1ccnc2cc(Cl)ccc12 (stereo not shown) [Hydroxychloroquine]
50 µM drug, listed as Hydrochloroquine
  percent enzymatic activity, individual values: 83.3868% and 88.8143% and 90.788%
50 µM drug
  percent enzymatic activity, AVG: 87.663%

## CCC(C)n1ncn(-c2ccc(N3CCN(c4ccc(OCC5COC(Cn6cncn6)(c6ccc(Cl)cc6Cl)O5)cc4)CC3)cc2)c1=O (stereo not shown) [Itraconazole]
50 µM drug
  percent enzymatic activity, individual values: 81.4131% and 90.2946% and 93.255%
  percent enzymatic activity, AVG: 88.3209%

## Cc1cccc(C)c1OCC(=O)N[C@@H](Cc1ccccc1)[C@@H](O)C[C@H](Cc1ccccc1)NC(=O)[C@H](C(C)C)N1CCCNC1=O [Lopinavir]
50 µM drug
  percent enzymatic activity, individual values: 75.576% and 76.4977% and 84.3318%
  percent enzymatic activity, AVG: 78.8018%
  inhibitory effect towards 3CLpro enzymatic activity (in words): did not exhibit any 3CLpro inhibitory activity

## CCCCCOc1ccc(-c2cc(-c3ccc(C(=O)N[C@H]4C[C@@H](O)[C@@H](O)NC(=O)[C@@H]5[C@@H](O)[C@@H](C)CN5C(=O)[C@H]([C@H](O)CC(N)=O)NC(=O)[C@H]([C@H](O)[C@@H](O)c5ccc(O)c(OS(=O)(=O)O)c5)NC(=O)[C@@H]5C[C@@H](O)CN5C(=O)[C@H]([C@@H](C)O)NC4=O)cc3)no2)cc1 [Micafungin] (X1-[Orn(4R-OH,5R-OH)]T[Hyp][hTyr(3S-OH,4S-OH,3'-OSO3H)][Gln(3R-OH)][Pro(3S-OH,4S-Me)]; lactam 1-C)
50 µM drug
  percent enzymatic activity, individual values: 37.5856% and 41.7364% and 49.3462%
  percent enzymatic activity, AVG: 42.8894%
  inhibition at 50 µM: 57%
[1]
  % activity: 93.428% and 107.627%
[2]
  activity at 0.097656 µM: 103%
[3]
  % activity: 93.921% and 112.575%
dose-dependent study, 0.195313 uM, individual values, read-out: % activity
  activity at 0.195313 µM: 95.4%
[4]
  % activity: 94.414% and 111.957%
[5]
  activity at 0.390625 µM: 94.9%
[6]
  % activity: 110.101%
[7]
  activity at 0.78125 µM: 101%
[8]
  % activity: 99.8373% and 115.049%
[9]
  activity at 1.5625 µM: 101%
[10]
  % activity: 103.781% and 119.998%
dose-dependent study, 3.125 uM, individual values, read-out: % activity
  activity at 3.125 µM: 105%
[11]
  % activity: 110.101%
[12]
  activity at 6.25 µM: 105%
[13]
  % activity: 103.915%
[14]
  activity at 12.5 µM: 92.9%
[15]
  % activity: 86.0326% and 95.2558%
  activity at 25 µM: 79.6%
[16]
  % activity: 43.6326% and 50.0419% and 67.4213%
[17]
  % activity: 20.9535% and 30.3087%
dose-dependent study, 100 uM, individual values, read-out: % activity
  activity at 100 µM: 19%
[18]
  IC50: 47.6 µM
  inhibitory effect towards 3CLpro enzymatic activity (in words): partial inhibitory effect
100 µM drug
  inhibition at 100 µM: ~80%

## Cc1c(O)cccc1C(=O)N[C@@H](CSc1ccccc1)[C@H](O)CN1C[C@H]2CCCC[C@H]2C[C@H]1C(=O)NC(C)(C)C [Nelfinavir]
50 µM drug, listed as Nilfinavir
  percent enzymatic activity, individual values: 69.1244% and 72.3502% and 70.0461%
50 µM drug
  percent enzymatic activity, AVG: 70.5069%

## COC(=O)N[C@H](C(=O)N1CCC[C@H]1C(=O)Nc1ccc([C@@H]2CC[C@@H](c3ccc(NC(=O)[C@@H]4CCCN4C(=O)[C@@H](NC(=O)OC)C(C)C)cc3)N2c2ccc(C(C)(C)C)cc2)cc1)C(C)C [Ombitasvir]
50 µM drug
  percent enzymatic activity, individual values: 28.8321% and 35.4015% and 42.7007%
  percent enzymatic activity, AVG: 35.6448%
IC50 for SARS-CoV-2 3CL protease
  IC50: 75.5 µM
[1]
  % activity: 102.678% and 100.823%
  activity at 0.097656 µM: 106%
[3]
  % activity: 97.7299% and 97.8652%
  activity at 0.195313 µM: 106%
[4]
  % activity: 102.06% and 103.288%
  activity at 0.390625 µM: 112%
[6]
  % activity: 107.008% and 95.4001%
  activity at 0.78125 µM: 113%
[8]
  % activity: 102.06% and 100.823%
  activity at 1.5625 µM: 111%
[10]
  % activity: 111.957% and 103.781%
  activity at 3.125 µM: 113%
[11]
  % activity: 105.153% and 107.726%
  activity at 6.25 µM: 115%
[13]
  % activity: 107.627% and 104.767%
  activity at 12.5 µM: 112%
[15]
  % activity: 102.302% and 73.6067% and 103.288%
[16]
  % activity: 98.3582% and 67.4213% and 91.9489%
[17]
  % activity: 61.2358% and 60.8884%
  activity at 100 µM: 64.3%
  inhibitory effect towards 3CLpro enzymatic activity (in words): partial inhibitory effect
  inhibition at 50 µM: 65%
  inhibition at 100 µM: 50%

## CCOC(=O)C1=C[C@@H](OC(CC)CC)[C@H](NC(C)=O)[C@@H](N)C1 [Oseltamvir Phosphate]
50 µM drug
  percent enzymatic activity, individual values: 105.843% and 84.7982% and 96.5585%
  percent enzymatic activity, AVG: 95.7333%

## Cc1cnc(C(=O)N[C@H]2CCCCC/C=C\[C@@H]3C[C@@]3(C(=O)NS(=O)(=O)C3CC3)NC(=O)[C@@H]3C[C@@H](Oc4nc5ccccc5c5ccccc45)CN3C2=O)cn1 [Paritaprevir]
50 µM drug
  percent enzymatic activity, individual values: 25.5475% and 31.3869% and 37.2263%
  percent enzymatic activity, AVG: 31.3869%
  inhibition at 50 µM: 70%
[1]
  % activity: 101.809% and 115.049%
[2]
  activity at 0.097656 µM: 101%
[3]
  % activity: 132.87% and 115.668%
[4]
  % activity: 114.628% and 102.678%
[5]
  activity at 0.390625 µM: 113%
[6]
  % activity: 108.219% and 103.297%
[7]
  activity at 0.78125 µM: 108%
[8]
  % activity: 121.853%
[9]
  activity at 1.5625 µM: 114%
[10]
  % activity: 108.712% and 136.698%
[11]
  % activity: 112.163% and 121.853%
[12]
  activity at 6.25 µM: 112%
[13]
  % activity: 103.781% and 112.575%
[14]
  activity at 12.5 µM: 102%
[15]
  % activity: 89.4838% and 96.4929%
  activity at 25 µM: 91%
[16]
  % activity: 58.9163% and 64.3286%
  activity at 50 µM: 61.4%
[17]
  % activity: 16.5163% and 15.0372% and 1.856%
[18]
  IC50: 73.4 µM
  inhibitory effect towards 3CLpro enzymatic activity (in words): partial inhibitory effect
100 µM drug
  inhibition at 100 µM: ~80%

## CCC(CC)[C@H](NC(C)=O)[C@@H]1[C@H](O)[C@@H](C(=O)O)C[C@H]1N=C(N)N [Peramivir]
50 µM drug
  percent enzymatic activity, individual values: 99.7193% and 97.2053% and 109.775%
  percent enzymatic activity, AVG: 102.233%

## COC(=O)N[C@H](C(=O)N1CCC[C@H]1c1nc2cc([C@H]3CC[C@H](c4cc5nc([C@@H]6CCCN6C(=O)[C@@H](NC(=O)OC)[C@@H](C)OC)[nH]c5cc4F)N3c3cc(F)c(N4CCC(c5ccc(F)cc5)CC4)c(F)c3)c(F)cc2[nH]1)[C@@H](C)OC [Pibrentasvir]
50 µM drug
  percent enzymatic activity, individual values: 62.0438% and 66.4234% and 69.3431%
  percent enzymatic activity, AVG: 65.9367%

## O=C(O)[C@H]1C2CCC(CC2)[C@@H]1Nc1nc(-c2c[nH]c3ncc(F)cc23)ncc1F [Pimodivir]
50 µM drug, listed as Pimodvir
  percent enzymatic activity, individual values: 92.1775% and 98.4623% and 116.898%
50 µM drug
  percent enzymatic activity, AVG: 102.513%

## Cc1cc(CCCOc2c(C)cc(-c3noc(C(F)(F)F)n3)cc2C)on1 [Pleconaril]
50 µM drug
  percent enzymatic activity, individual values: 89.2446% and 86.7306% and 85.4737%
  percent enzymatic activity, AVG: 87.1496%

## CC[C@@H]([C@H](C)O)n1ncn(-c2ccc(N3CCN(c4ccc(OC[C@@H]5CO[C@@](Cn6cncn6)(c6ccc(F)cc6F)C5)cc4)CC3)cc2)c1=O [Posaconazole]
50 µM drug
  percent enzymatic activity, individual values: 84.6282% and 81.1692%
  percent enzymatic activity, AVG: 83.4752%

## CCC(CC)COC(=O)[C@H](C)N[P@](=O)(OC[C@H]1O[C@@](C#N)(c2ccc3c(N)ncnn23)[C@H](O)[C@@H]1O)Oc1ccccc1 [Remdesivir]
50 µM drug
  percent enzymatic activity, individual values: 83.5766% and 41.9708% and 50.7299%
  percent enzymatic activity, AVG: 58.7591%

## NC[C@H]1O[C@H](O[C@H]2[C@H](O[C@@H]3O[C@H](CO)[C@@H](O)[C@H]3O)[C@@H](O)[C@H](N)C[C@@H]2N)[C@H](N)[C@@H](O)[C@@H]1O [Ribostamycin]
50 µM drug
  percent enzymatic activity, individual values: 96.7864% and 99.3003%
  percent enzymatic activity, AVG: 98.4623%

## CC(C)c1nc(CN(C)C(=O)N[C@H](C(=O)N[C@@H](Cc2ccccc2)C[C@H](O)[C@H](Cc2ccccc2)NC(=O)OCc2cncs2)C(C)C)cs1 [Ritonavir]
50 µM drug
  percent enzymatic activity, individual values: 82.0276% and 87.5576% and 91.2442%
  percent enzymatic activity, AVG: 86.9432%
  inhibitory effect towards 3CLpro enzymatic activity (in words): did not exhibit any 3CLpro inhibitory activity

## CC(C)(C)NC(=O)[C@@H]1C[C@@H]2CCCC[C@@H]2CN1C[C@@H](O)[C@H](Cc1ccccc1)NC(=O)[C@H](CC(N)=O)NC(=O)c1ccc2ccccc2n1 [Saquinavir]
50 µM drug
  percent enzymatic activity, individual values: 65.8986% and 67.2811% and 76.0369%
  percent enzymatic activity, AVG: 69.7389%

## CC(C)OC(=O)[C@H](C)N[P@](=O)(OC[C@H]1O[C@@H](n2ccc(=O)[nH]c2=O)[C@](C)(F)[C@@H]1O)Oc1ccccc1 [Sofosbuvir]
50 µM drug
  percent enzymatic activity, individual values: 76.4977% and 78.341% and 81.5668%
  percent enzymatic activity, AVG: 78.8018%

Reference: PMC7817688, “Identification of 3-chymotrypsin like protease (3CLPro) inhibitors as potential anti-SARS-CoV-2 agents” (Communications Biology, 2021)
